Test results reported in ChEMBL document CHEMBL1147296, “Faeriefungin: a new broad-spectrum antibiotic from Streptomyces griseus var. autotrophicus” (J Nat Prod, 1989).
In brackets after ≈: the same amount, converted by molar mass.

What was measured:
[1] = system: Candida albicans; test: Antifungal activity against Candida albicans MSU-SM 543 after 2 to 4 days; format: functional
[2] = system: Aspergillus fumigatus; test: Antifungal activity against Aspergillus fumigatus MSU-SM 920 after 2 to 4 days; format: functional
[3] = system: Microsporum canis; test: Antifungal activity against Microsporum canis after 2 to 4 days; format: functional
[4] = system: Trichophyton rubrum; test: Antifungal activity against Trichophyton rubrum after 2 to 4 days; format: functional
[5] = Toxicity against human erythrocytes at 50 ppm after 60 mins by turbidimetry; format: cell-based; settings: erythrocyte, 1 h
[6] = Toxicity against human erythrocytes at 20 ppm after 60 mins by turbidimetry; format: cell-based; settings: erythrocyte, 1 h
[7] = Toxicity against human erythrocytes at 0.5 ppm after 60 mins by turbidimetry; format: cell-based; settings: erythrocyte, 1 h
[8] = Toxicity against human erythrocytes at 0.05 ppm after 60 mins by turbidimetry; format: cell-based; settings: erythrocyte, 1 h
[9] = Toxicity against rat WB-F344 cells assessed as cell viability at 50 ppm after 1 hr using trypan blue staining by LDH assay; format: cell-based; settings: read-out: Activity
[10] = Toxicity against rat WB-F344 cells assessed as cell viability at 20 ppm after 1 hr using trypan blue staining by LDH assay; format: cell-based; settings: read-out: Activity
[11] = Toxicity against rat WB-F344 cells assessed as cell viability at 0.5 ppm after 1 hr using trypan blue staining by LDH assay; format: cell-based; settings: read-out: Activity
[12] = Toxicity against rat WB-F344 cells assessed as cell viability at 0.05 ppm after 1 hr using trypan blue staining by LDH assay; format: cell-based; settings: read-out: Activity

Compound	MIC [1] [µg/mL]	MIC [2] [µg/mL]	MIC [3] [µg/mL]	MIC [4] [µg/mL]	Activity [5]	Activity [6]	Activity [7]	Activity [8]	viability at 1 h, 50 ppm [9] [%]	viability at 1 h, 20 ppm [10] [%]	viability at 1 h, 0.5 ppm [11] [%]	viability at 1 h, 0.05 ppm [12] [%]
C[C@@H]1[C@H](O)[C@@H](C)/C=C/C=C/C=C/C=C/C=C/C=C/C=C/[C@H](O[C@@H]2O[C@H](C)[C@@H](O)[C@H](N)[C@@H]2O)C[C@@H]2O[C@](O)(C[C@@H](O)C[C@@H](O)[C@H](O)CC[C@@H](O)C[C@@H](O)CC(=O)O[C@H]1C)C[C@H](O)[C@H]2C(=O)O [AMPHOTERICIN B]	3.2 (≈ 3.46 µM)	80 (≈ 86.6 µM)	16 (≈ 17.3 µM)	16 (≈ 17.3 µM)	Toxic	Toxic	Non-toxic	Non-toxic	0	0	100	100
Clc1ccccc1C(c1ccccc1)(c1ccccc1)n1ccnc1 [CLOTRIMAZOLE]	1 (≈ 2.9 µM)	1 (≈ 2.9 µM)	16 (≈ 46.4 µM)	80 (≈ 232 µM)								
CC(=O)N1CCN(c2ccc(OCC3COC(Cn4ccnc4)(c4ccc(Cl)cc4Cl)O3)cc2)CC1 (configuration not stated) [KETOCONAZOLE]	0.5 (≈ 0.941 µM)	1 (≈ 1.88 µM)	5.5 (≈ 10.3 µM)	5.5 (≈ 10.3 µM)								
Clc1ccc(COC(Cn2ccnc2)c2ccc(Cl)cc2Cl)c(Cl)c1 (configuration not stated) [MICONAZOLE]	1 (≈ 2.4 µM)	8 (≈ 19.2 µM)	16 (≈ 38.4 µM)	80 (≈ 192 µM)								
C[C@@H]1C/C=C/C=C/C=C/C=C/[C@H](O[C@@H]2O[C@H](C)[C@@H](O)[C@H](N)[C@@H]2O)C[C@@H]2O[C@](O)(C[C@@H](O)C[C@H]3O[C@@H]3/C=C/C(=O)O1)C[C@H](O)[C@H]2C(=O)O [NATAMYCIN]	5.5 (≈ 8.26 µM)	16 (≈ 24 µM)	16 (≈ 24 µM)	16 (≈ 24 µM)								
NYSTATIN	3.2	100	100	100								
